# Where no end group is shown, it is not given here.
# How the values were obtained:
# CSN complex (CSN5) = assay: Co-immunoprecipitation (anti-GFP) of transiently expressed Cer fusions in HAP1 WT cells; type: cell-based; conditions: transient expression of Cer fusions, anti-GFP pull-down, CSN5/GFP densitometry, at least three experiments
# Excerpt: To define whether C-CSNAP can displace the endogenous CSN subunit from the complex, we transiently expressed several versions of C-CSNAP peptides with differing lengths, fused to the fluorescent protein cerulean (Cer) in WT HAP1 cells (Fig 2A) and cells lacking CSNAP (ΔCSNAP cells) (Fig S2A). We then performed co-immunoprecipitation analyses, using an antibody against GFP that recognizes the Cer tag (Figs 2B and C and S2B). […] Moreover, in ΔCSNAP cells, all C-CSNAP derivatives were efficiently incorporated into CSN (Fig S2B), whereas in WT cells, differential integration was observed (Fig 2B). […] Truncations of the 16 amino acid stretch from either end decreased or abolished the incorporation efficiency (Fig 2B and C).
# Figure 2. The last 16 amino acids of CSNAP efficiently displace the endogenous CSNAP subunit. (A) The different CSNAP C-terminal sequences that were examined. The 16 amino acid sequence is highlighted in blue, and the N- or C-terminally truncated forms are labelled in green and magenta, respectively (numbering of residues are corresponding to full length CSNAP). […] (C) Quantification of the densitometry results of at least three independent immunoprecipitation experiments using an anti-GFP antibody, represented as mean ratios of immunoprecipitated CSN5/GFP, followed by normalization to the sample transfected with Cer, plotted as mean ± SEM. […]
# CSN complex = assay: Reciprocal co-immunoprecipitation (anti-CSN3, anti-GFP) of Cer fusions in HAP1 cells; type: cell-based; conditions: peptides fused to Cer expressed in HAP1 cells; anti-CSN3 and anti-GFP pull-downs
# Excerpt: To clarify the ability of C-CSNAP peptides to displace CSNAP in cells, we stably expressed four versions of CSNAP, the 16AA and 20AA C-CSNAP, D42E and scrambled peptides fused to the fluorescent protein Cer in HAP1 cells. As control, we used HAP1 cells expressing Cer only. We then performed reciprocal co-immunoprecipitation analyses, using antibodies against CSN3 and GFP recognizing Cer (Figs 6A and S5). […] This is reflected by the higher intensity of the GFP band upon CSN3 pull down, and by the more intense CSN3 band following GFP co-immunoprecipitation.
# (§1) Figure 6. Expression of C-CSNAP reduces cellular proliferation rate. (A) Immunoprecipitation analysis using anti-GFP antibody recognizing cerulean (Cer) from lysates of cells expressing the Cer-fused 16AA, 20AA, D42E, and scrambled C-CSNAP in HAP1 WT cells. The COP9 signalosome complex was pulled down from all cells, except when Cer is expressed alone or fused to the scrambled C-CSNAP. Similarly, reciprocal immunoprecipitation by an anti-CSN3 antibody pulled down only the Cer-fused 16AA, 20AA, or D42E C-CSNAP. (B) Stable overexpression of 16AA and 20AA C-CSNAP–Cer in HAP1 WT cells reduces their rate of proliferation. […] One-way ANOVA (P < 0.05) with Dunnett’s multiple comparisons test was used to compare means *P < 0.05, **P < 0.01.
# Figure S5. […]
# HAP1 WT cells = assay: Resazurin-based cell proliferation assay; conditions: HAP1 WT cells stably expressing Cer fusions, 24 h after plating, five independent experiments
# Excerpt: as §1, with “0.01. […]” for “0.01.”
# HAP1 WT cells stably expressing Cer, 16AA, and 20AA C-CSNAP–Cer were trypsinized and counted. […] Fluorescence intensities at 560/600 nm (ex/em) were measured, and average intensities of four replicates in each plate were calculated, normalized against WT after background subtraction, and normalized values from five independent experiments were compared on a bar graph with SEM. Significance was calculated using repeated measurment one-way ANOVA (P < 0.05) with Dunnett’s multiple comparisons test was used to compare means to Cer as control *P < 0.05, **P < 0.01.
# CSN^ΔCSNAP complex [1] = assay: BIAcore surface plasmon resonance biosensor assay; conditions: C-terminally biotinylated peptide immobilized on SA chip, CSN^ΔCSNAP 1-8 nM injected, 180 s binding, 1,000 s dissociation, 25°C, 1:1 binding fit
# Excerpt: To validate the peptide array results, we used the surface plasmon resonance biosensor (Biacore) method to measure the binding affinities between C-CSNAP peptides and CSN^ΔCSNAP. We selected three peptides, the 16 residue C-terminal fragment (^42[…]^57, 16AA C-CSNAP) (Fig 4B), the 20 amino acid peptide (^38[…]^57, 20AA C-CSNAP) (Fig 4C), and a peptide containing the substitution of Asp to Glu at position 42 (D42E C-CSNAP) (Fig 4D). As a positive control, we used full-length CSNAP (Fig 4A), and a scrambled peptide ([…]) (Fig 4E) was used as a negative control. Interaction between the CSN^ΔCSNAP complex and the CSNAP variants was measured using a setting of 180 s binding followed by 1,000 s dissociation time (Fig 4).
# Figure 4. C-CSNAP peptides display high affinity towards the CSN^ΔCSNAP complex. […] (F) Binding rate constants and affinities were determined via Biacore Evaluation Software analysis of SPR sensograms. […]
# The experiments were carried out using Biacore SA200 SPR sensor (Biacore, GE Healthcare) with control software version 1.1 and Cytiva Series S Sensor chip SA. […] Data were analyzed in SA200 evaluation software version 1.1, with automatic fitting using parameter setting 1:1 binding (ka, kd, and tc global fit, Rmax and RI local fit).
# recombinant CSN complex = assay: Peptide array screen of C-CSNAP peptides with recombinant CSN (rCSN^WT); type: binding; conditions: rCSN^WT on INTAVIS Celluspots array, anti-CSN3 and HRP secondary antibody; average of six replicates (three independent experiments in duplicates);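 also: densitometric signal of CSN bound to each synthesized peptide spot, with an antibody-only array lacking CSN run to exclude non-specific binding, higher values meaning stronger binding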
# Procedure: To generate an optimized C-CSNAP peptide, we used the peptide array methodology. The array was designed to screen for the optimal peptide length, sequence, and stability (Fig 3A). A recombinant CSN complex was expressed, purified, and screened for binding to the peptide array by using an anti-CSN3 antibody. To rule out non-specific binding of the probing antibody, a control experiment was carried out without the addition of the CSN complex (Fig 3A right panel).
# C-CSNAP peptide and its derivatives were synthesized on a microarray. The array was blocked and incubated with or without the COP9 signalosome complex (CSN) and probed using an anti-CSN3 antibody and HRP-conjugated secondary antibody. To assess non-specific binding of the antibodies to the array, anti-CSN3 and anti-GAR–HRP were used without the addition of the CSN. Signal intensity of each spot was measured and normalized to the intensity of the spot of C-CSNAP (A1). Measured values for each spot were averaged from six arrays and plotted with SEM. […] (A) A representative image of the peptide array (left) and the background (right). (B) Elongation of the C-terminal 16 amino acids (green) with one residue at a time based on the full-length sequence. […] (F) Single D-amino acid substitution at various positions.
# (§2) Intensity values are normalized to the intensity of the 16AA C-CSNAP peptide (A1) on each array from three independent experiments in duplicates, and averages from the six replicates are calculated with SEM.
# (§3) Optimization of C-CSNAP sequence for enhanced binding to recombinant CSN^ΔCSNAP was screened by printing the modified sequences of CSNAP or C-CSNAP (Phe to Trp, Asp to Glu, Ala screen, D-amino acid screen, N-α-methylation, and Aib incorporation on INTAVIS Celluspots array [2 × 384spots]). The array was blocked with 5% skim milk in TBS-0.5% Tween 20 (TBS-T) for 4 h at room temperature, washed three times in TBS-T, and then incubated with 0.5 μM CSN^ΔCSNAP in 5% milk–TBS-T. Bound CSN^ΔCSNAP was visualized by incubating with anti-CSN3 (ab79698) antibody (1:10,000, overnight) and goat-anti-rabbit-HRP secondary antibody (1:10,000, 1 h).
# CSN^ΔCSNAP complex [2] = assay: Peptide array screen of C-CSNAP peptides with rCSN^ΔCSNAP; type: binding; conditions: peptide array with rCSN^ΔCSNAP; average of 5 experiments, left and right (n = 10), fold of C-CSNAP (A1);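 also: Array-printed peptides incubated with 0.5 µM CSN^ΔCSNAP, bound complex detected by anti-CSN3 antibody plus HRP-linked secondary, spot intensity expressed relative to the parent reference peptide spot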
# Procedure: Peptide array screen of modified C-CSNAP peptides. C-CSNAP peptide and its derivatives were printed on a microarray. The array was blocked and incubated with or without the CSN∆CSNAP complex and probed using an anti-CSN3 antibody and HRP-conjugated secondary antibody. To assess non-specific binding of the antibodies to the array, anti-CSN3 and anti-GAR-HRP were used without the addition of the COP9 signalosome complex (CSN). Signal intensity of each spot was measured and normalized to the intensity of the spot of C-CSNAP (A1). Measured values for each spot were averaged from six arrays and plotted with standard errors SEM.
# as §2, §3
Substance,"integration into the CSN complex, based on band intensities, in words (CSN complex)","cell proliferation compared with cells expressing only Cer, in words (HAP1 WT cells)","Average fold change, intensities as fold of C-CSNAP (A1) (recombinant CSN complex)",Average fold change (CSN^ΔCSNAP complex [2]),further results
"16AA C-CSNAP–Cer: 16AA C-CSNAP fused to the fluorescent protein cerulean (Cer), expressed in HAP1 cells (DFFNDFEDLFDDDDIQ; also: C-terminal fusion to Cerulean via Gly-Ser-Gly-Ser linker)",lower,significant reductions in cell proliferation,,,"association with / incorporation into the CSN complex, in words (CSN complex (CSN5)): highest degree of association with the CSN complex"
IDGENVSNLDYARKAT [scrambled peptide],,,,,Kd (CSN^ΔCSNAP complex [1]): No measurable binding
"20AA C-CSNAP–Cer: 20AA C-CSNAP fused to the fluorescent protein cerulean (Cer), expressed in HAP1 cells (AVHADFFNDFEDLFDDDDIQ; also: fused to Cerulean, end not given here)",highest ability to integrate into CSN,significant reductions in cell proliferation,,,
"GLLMDLAANEKAVHADFFNDFEDLFDDDDIQ [Position A16, CSNAP residues 27-57]",,,1.0167 fold of C-CSNAP (A1),1.2168 fold,
"LMDLAANEKAVHADFFNDFEDLFDDDDIQ [Position A14, CSNAP residues 29-57]",,,0.9262 fold of C-CSNAP (A1),1.0726 fold,
